Measurements from patent EP0145303A1, “Glycerol derivatives” (ONO PHARMACEUTICAL CO., LTD., priority 1983, dated 1985).

Experiments:
[1] = molecular target: PAF (10 nM)-induced aggregation (Cavia porcellus, UniProt P21556); assay: Inhibitory effect on PAF-induced platelet aggregation (platelet rich plasma, absorbancy method, aggregometer of Born); type: cell-based; details: male guinea pig platelet rich plasma
Protocol: Whole blood of male guinea pig was collected with a 3.8% aqueous solution of trisodium citrate in a proportion of 9:1 (v/v) and the mixture was centrifuged (120 x g) for 10 minutes at room temperature to obtain platelet rich plasma. Using obtained plasma, PAF (10 nM)-induced aggregation was determined by the absorbancy method using an aggrego-meter of Born [cf. J. Physiol., 162, 67 (1962)].
The evaluation is conducted using the concentration of compounds of the present invention required to produce a 50% inhibition of each effect, i.e. IC50.

mice = assay: Acute toxicity by intravenous administration; type: in vivo; details: five mice, intravenous to tail vein, dose of 100 mg/Kg
Protocol: On the other hand, it was confirmed that the acute toxicity of all extent of the compounds of the present invention was more than 100 mg/Kg by intravenous administration. Therefore, glycerol derivatives of the present invention may be considered to be sufficiently safe and suitable for medical use. For example, the mortality (daed/used) in glycerol derivatives of the present invention, i.e. compounds prepared in Example 4 was 0/5, when glycerol derivatives was intravenous administered to tail vein in five mice at the dose of 100 mg/Kg.

Chain of PAF (10 nM)-induced aggregation (P21556 whole entry): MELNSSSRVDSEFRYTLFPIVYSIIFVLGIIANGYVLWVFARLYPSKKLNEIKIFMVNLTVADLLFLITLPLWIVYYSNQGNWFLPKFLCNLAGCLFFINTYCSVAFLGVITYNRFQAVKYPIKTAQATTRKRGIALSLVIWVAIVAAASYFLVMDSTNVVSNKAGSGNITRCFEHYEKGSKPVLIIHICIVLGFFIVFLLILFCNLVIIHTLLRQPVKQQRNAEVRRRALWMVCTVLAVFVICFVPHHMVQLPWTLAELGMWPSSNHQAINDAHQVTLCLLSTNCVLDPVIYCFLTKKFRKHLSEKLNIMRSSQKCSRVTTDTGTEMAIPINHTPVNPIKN

Structure (SMILES)	IC50 [1]	mortality (daed/used) (mice)
CCCCCCCCCCCCCCCCOCC(COc1ccc(CCCC[N+](C)(C)C)cc1)NC(=O)NC (centres unmarked) [5(a)]	4.7 µM	–
CCCCCCCCCCCCCCCCOCC(COc1ccc(CCCC[N+](C)(C)C)cc1)NC(=O)OCC(C)C (centres unmarked) [Example 4]	–	0/5
CCCCCCCCCCCCCCCCOCC(COc1ccc(CCCC[N+](C)(C)C)cc1)OC(C)=O (centres unmarked) [Example 2]	5 µM	–
CCCCCCCCCCCCCCCCOCC(COCCCc1ccc([N+](C)(C)C)cc1)NC(=O)OCC(C)C (racemic) [Example 9]	3.7 µM	–
CCCCCCCCCCCCCCCCOCC(COc1ccc(CCCC[N+](C)(C)C)cc1)NC(C)=O (centres unmarked) [Example 5]	6.7 µM	–
